According to patent publication EP1836906B1, “Healthy food product” (Unilever N.V., priority 2006, dated 2009):
Read-outs that look alike come from different tables or passages of the source. Ends that are not written are not given here.

Columns and labels:
[1] = Water solubility test (turbid appearance of 10 mg peptide in 10 ml de-mineralised water); settings: water at 20 C and pH 6.5
Experimental: (§1) Peptides for use in food products according to the invention are water-insoluble in water at 20°C and a pH of 6.5. This can for example be evidenced by mixing 10 mg of the peptide into 10 ml of de-mineralised water at 20°C and pH 6.5, and stirring. A (measurable) turbid appearance of the solution after stirring is indicative of the fact that the peptide is water-insoluble.

[2] = pH 6.5
Experimental: as §1

Molecule	Peptide category (substantially water-insoluble or soluble) [1]	Peptide category (substantially water-insoluble or soluble) [2]
DDDDDD [DDDDDD, reference compound]	Soluble peptides	–
NCC(=O)NCC(=O)NCC(=O)NCC(=O)NCC(=O)NCC(=O)O [GGGGGG]	–	Insoluble peptides
VEWEME [VEWEME, reference compound]	Soluble peptides	–
GGGGGGGG [GGGGGGGG]	Insoluble peptides	–
YYYYYY [YYYYYY]	Insoluble peptides	–
GSGGSG [GSGGSG]	Soluble peptides	–
EAEWEY [EAEWEY, reference compound]	Soluble peptides	–
